US11834430B2, “Compounds useful as inhibitors of isoprenylcysteine carboxyl methyltransferase” (AGENCY FOR SCIENCE, TECHNOLOGY AND RESEARCH, priority 2017, dated 2023)
pIC50: −log10 of the molar value. Values joined by “and” are separate entries in the source; they are usually repeats but may differ in a detail not shown here. Equal values may be shown once.

Biological target: human ICMT (Homo sapiens (Human), UniProt O60725)
Test: ICMT biochemical assay (Methyltransferase-Glo)
Conditions: ICMT membrane extract from Sf-9 cells; 30 min preincubation, 90 min reaction
Experimental: Recombinant human ICMT was prepared by infection of Sf9 cells with a recombinant baculovirus containing the entire open reading frame of the human ICMT cDNA.
Cells producing ICMT were harvested 66 hours post-infection. The cells are homogenized and resuspended in 5 mM NaHPO4 (pH 7.0), and a cocktail of protease inhibitors. The membrane was pelleted, after removal of nuclei and debris, at 100,000×g for 1 hour. Membranes were resuspended in 5 mM NaHPO4 (pH 7.0) with 5 mM EDTA at 10-12 mg/ml. The suspension was stored at −80° C. in multiple aliquots.
An ICMT enzymatic assay was developed using Promega's Methyltransferase-GloTMreagents. In the assay, ICMT catalyzes the methylation of the N-Acetyl-S-farnesyl-L-cysteine by transferring a methyl group from SAM to the farnesylated cysteine and further converts the SAM to SAH. The methyltransferase activity is measured based on the amount of SAH produced from the reaction through the use of coupling enzymes that convert the SAH to ATP. The MTase-Glo detection solution then catalyzes the formation of light from ATP.
A final concentration of 2.0 μM and 20 μM of SAM and peptide were added and further incubated for 90 minutes at room temperature before adding the MTase Glo and detection reagent. Reaction signals were detected using microplate readers on luminescent mode (Satire Tecan). The IC50 was determined by nonlinear regression, using GraphPad Prism version, 5.03.

Sequence of human ICMT (O60725 whole entry): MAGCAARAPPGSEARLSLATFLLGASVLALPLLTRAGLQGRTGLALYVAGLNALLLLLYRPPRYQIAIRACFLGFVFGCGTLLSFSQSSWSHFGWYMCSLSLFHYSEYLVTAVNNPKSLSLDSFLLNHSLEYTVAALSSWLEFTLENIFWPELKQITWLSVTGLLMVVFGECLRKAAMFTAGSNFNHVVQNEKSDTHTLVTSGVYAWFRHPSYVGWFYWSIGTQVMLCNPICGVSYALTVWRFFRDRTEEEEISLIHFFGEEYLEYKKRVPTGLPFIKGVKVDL

Row | Structure (SMILES) | pIC50
1 | N#Cc1ccc(OCCOc2cccc(-n3cncn3)c2)cc1 [Compound 1, 4-(2-(3-(1H-1,2,4-triazol-1-yl)phenoxy)ethoxy)benzonitrile] | 6.25
2 | N#Cc1ccc(OCCOc2cccc(-c3cncs3)c2)cc1 [Compound 3, 4-(2-(3-(thiazol-5-yl)phenoxy)ethoxy)benzonitrile] | 6.20 and 6.31
3 | Cc1nccn1-c1cccc(OCCOc2ccc(C#N)nc2)c1 [Compound 4, 5-(2-(3-(2-methyl-1H-imidazol-1-yl)phenoxy)ethoxy)picolinonitrile] | 6.59 and 6.66 and 6.41
4 | Cc1nccn1-c1cccc(OCCOc2ccc(C#N)cc2F)c1 [Compound 6, 3-fluoro-4-(2-(3-(2-methyl-1H-imidazol-1-yl)phenoxy)ethoxy)benzonitrile] | 8.70 and 9.00 and 8.62
5 | Cn1nccc1-c1cccc(OCCOc2ccc(C#N)cc2Cl)c1 [Compound 7, 3-chloro-4-(2-(3-(1-methyl-1H-pyrazol-5-yl)phenoxy)ethoxy)benzonitrile] | 8.52
6 | COc1cc(C#N)ccc1OCCOc1cccc(-n2ccnc2C)c1 [Compound 8, 3-methoxy-4-(2-(3-(2-methyl-1H-imidazol-1-yl)phenoxy)ethoxy)benzonitrile] | 9.70 and 9.44
7 | N#Cc1ccc(OCCOc2cccc(-n3ccnc3C3CC3)c2)c(Cl)c1 [Compound 9, 3-chloro-4-(2-(3-(2-cyclopropyl-1H-imidazol-1-yl)phenoxy)ethoxy)benzonitrile] | 10.00 and 9.74
8 | Cc1nccn1-c1cccc(OCCOc2ccc(C#N)cn2)c1 [Compound 10, 6-(2-(3-(2-methyl-1H-imidazol-1-yl)phenoxy)ethoxy)nicotinonitrile] | 7.10
9 | N#Cc1ccc(OCCOc2cccc(-c3cncs3)c2)c(Cl)c1 [Compound 11, 3-chloro-4-(2-(3-(thiazol-5-yl)phenoxy)ethoxy)benzonitrile] | 7.70
10 | N#Cc1ccc(OCCOc2cccc(-c3cncs3)c2)c(F)c1 [Compound 12, 3-fluoro-4-(2-(3-(thiazol-5-yl)phenoxy)ethoxy)benzonitrile] | 6.68
11 | Cc1ccc(OCCOc2cccc(-n3ccnc3C)c2)c(C#N)c1 [Compound 13, 5-methyl-2-(2-(3-(2-methyl-1H-imidazol-1-yl)phenoxy)ethoxy)benzonitrile] | 7.96
12 | Cn1nccc1-c1cccc(OCCOc2ccc(C#N)cc2F)c1 [Compound 14, 3-fluoro-4-(2-(3-(1-methyl-1H-pyrazol-5-yl)phenoxy)ethoxy)benzonitrile] | 7.82
13 | COc1cc(C#N)ccc1OCCOc1cccc(-c2ccnn2C)c1 [Compound 15, 3-methoxy-4-(2-(3-(1-methyl-1H-pyrazol-5-yl)phenoxy)ethoxy)benzonitrile] | 8.96 and 9.05
14 | COc1cc(C#N)ccc1OCCOc1cccc(-c2cncs2)c1 [Compound 16, 3-methoxy-4-(2-(3-(thiazol-5-yl)phenoxy)ethoxy)benzonitrile] | 8.10 and 7.96
15 | N#Cc1ccc(OCCOc2cccc(-n3ccnc3C3CC3)c2)c(F)c1 [Compound 17, 4-(2-(3-(2-cyclopropyl-1H-imidazol-1-yl)phenoxy)ethoxy)-3-fluorobenzonitrile] | 7.80
16 | Cc1ccc(OCCOc2cccc(-c3ccnn3C)c2)c(C#N)c1 [Compound 18, 5-methyl-2-(2-(3-(1-methyl-1H-pyrazol-5-yl)phenoxy)ethoxy)benzonitrile] | 8.52
17 | COc1cc(C#N)ccc1OCCOc1cccc(-n2ccnc2C2CC2)c1 [Compound 19, 4-(2-(3-(2-cyclopropyl-1H-imidazol-1-yl)phenoxy)ethoxy)-3-methoxybenzonitrile] | 8.35

Row | Structure (SMILES) | pIC50
18 | N#Cc1ccc(OCCOc2cccc(-n3ccnc3C3CC3)c2)cc1 [Compound 20, 4-(2-(3-(2-cyclopropyl-1H-imidazol-1-yl)phenoxy)ethoxy)benzonitrile] | 9.77 and 9.80
19 | N#Cc1ccc(OCCOc2cccc(-n3cnnc3)c2)cc1 [Compound 21, 4-(2-(3-(4H-1,2,4-triazol-4-yl)phenoxy)ethoxy)benzonitrile] | 6.53
20 | Cc1nccn1-c1cccc(OC(C)COc2ccc(C#N)cc2Cl)c1 (stereo not shown) [Compound 22, 3-chloro-4-(2-(3-(2-methyl-1H-imidazol-1-yl)phenoxy)propoxy)benzonitrile] | 8.52
21 | Cc1nccn1-c1cccc(OC(C)COc2ccc(C#N)cc2F)c1 (stereo not shown) [Compound 23, 3-fluoro-4-(2-(3-(2-methyl-1H-imidazol-1-yl)phenoxy)propoxy)benzonitrile] | 7.21
22 | Cc1nccn1-c1cc(OCCOc2ccc(C#N)cc2Cl)ccn1 [Compound 24, 3-chloro-4-(2-((2-(2-methyl-1H-imidazol-1-yl)pyridin-4-yl)oxy)ethoxy)benzonitrile] | 9.00
23 | Cc1nccn1-c1cccc(OCC(C)Oc2ccc(C#N)cc2F)c1 (stereo not shown) [Compound 25, 3-fluoro-4-((1-(3-(2-methyl-1H-imidazol-1-yl)phenoxy)propan-2-yl)oxy)benzonitrile] | 7.64
24 | C#Cc1ccc(OCCOc2cccc(-n3ccnc3C)c2)cc1 [Compound 26, 1-(3-(2-(4-ethynylphenoxy)ethoxy)phenyl)-2-methyl-1H-imidazole] | 7.16
25 | Cc1cc(F)ccc1OCCOc1cccc(-c2ccnn2C)c1 [Compound 27, 5-(3-(2-(4-fluoro-2-methylphenoxy)ethoxy)phenyl)-1-methyl-1H-pyrazole] | 6.54
26 | CC(COc1cccc(-n2ccnc2C2CC2)c1)Oc1ccc(C#N)cc1F (stereo not shown) [Compound 28, 4-((1-(3-(2-cyclopropyl-1H-imidazol-1-yl)phenoxy)propan-2-yl)oxy)-3-fluorobenzonitrile] | 8.80
27 | COc1cc(C#N)ccc1OC(C)COc1cccc(-n2ccnc2C)c1 (stereo not shown) [Compound 29, 3-methoxy-4-((1-(3-(2-methyl-1H-imidazol-1-yl)phenoxy)propan-2-yl)oxy)benzonitrile] | 10.10
28 | Cc1cc(C#N)ccc1OC(C)COc1cccc(-c2ccnn2C)c1 (stereo not shown) [Compound 30, 3-methyl-4-((1-(3-(1-methyl-1H-pyrazol-5-yl)phenoxy)propan-2-yl)oxy)benzonitrile] | 8.80
29 | COc1cc(C#N)ccc1OC(C)COc1cccc(-c2ccnn2C)c1 (stereo not shown) [Compound 31, 3-methoxy-4-((1-(3-(1-methyl-1H-pyrazol-5-yl)phenoxy)propan-2-yl)oxy)benzonitrile] | 8.92
30 | Cc1nccn1-c1cccc(O[C@H](C)COc2ccc(C#N)cc2Cl)c1 [Compound 32, (R)-3-chloro-4-(2-(3-(2-methyl-1H-imidazol-1-yl)phenoxy)propoxy)benzonitrile] | 6.70
31 | Cc1nccn1-c1cccc(O[C@@H](C)COc2ccc(C#N)cc2Cl)c1 [Compound 33, (S)-3-chloro-4-(2-(3-(2-methyl-1H-imidazol-1-yl)phenoxy)propoxy)benzonitrile] | 8.82
32 | Cc1nccn1-c1cccc(O[C@H](C)COc2ccc(C#N)cc2F)c1 [Compound 34, (R)-3-fluoro-4-(2-(3-(2-methyl-1H-imidazol-1-yl)phenoxy)propoxy)benzonitrile] | 5.83
33 | Cc1nccn1-c1cccc(O[C@@H](C)COc2ccc(C#N)cc2F)c1 [Compound 35, (S)-3-fluoro-4-(2-(3-(2-methyl-1H-imidazol-1-yl)phenoxy)propoxy)benzonitrile] | 8.44
34 | Cc1nccn1-c1cccc(OCCOc2ccc(C#N)cc2OC(F)(F)F)c1 [Compound 36, 4-(2-(3-(2-methyl-1H-imidazol-1-yl)phenoxy)ethoxy)-3-(trifluoromethoxy)benzonitrile] | 6.85
